Experimental data from patent US8263040B2, “Metal chelates having a perfluorinated PEG radical, processes for their preparation, and their use” (Bayer Schering Pharma AG, priority 2006, dated 2012).

Assays:
[1] = Relaxivity: T1 and T2 relaxation times of water and plasma (bovine), NMR pulse spectrometer (Minispec PC 20); assay type: physicochemical; details: for Relaxivity R1 / Relaxivity R2: 40° C., 0.47 T
Method: The T1 and T2 relaxation times of water and plasma (bovine) having increasing concentrations of the substance from Example 2c) contained therein were determined at 40° C. using an NMR pulse spectrometer (Minispec PC 20) at 0.47 T (Table 1).
From the R1 relaxivities in water at high and low concentrations, a critical micelle formation concentration (CMC) of 0.02 mmol of Gd/I can be determined.

[2] = Plasma kinetics after intravenous administration in rats (ICP-AES, WinNonlin); assay type: in vivo; details: i.v., 50 μmol of total gadolinium/kg
Method: After intravenous administration of 50 μmol of total gadolinium/kg of body weight of the substances from Examples 2c), 21 c) and 22 c) in rats (n=3), blood samples were taken at different points in time (up to 24 h p.i.) by means of a catheter in the common carotid artery, and the metal content was determined by means of atomic emission spectrometry (ICP-AES) and converted to plasma values by means of a conversion factor (0.625). The pharmacokinetic parameters (Table 4) were calculated from the plasma concentrations by means of special software (WinNonlin).

[3] = tested on: histamine; assay: Release of histamine after single intravenous administration in rats (plasma histamine, ELISA); assay type: in vivo; details: for Histamine, baseline: before contrast agent administration; for Histamine, 10 min p.i. / Histamine, 30 min p.i. / Histamine, 60 min p.i.: i.v.
Method: After intravenous administration of the substances from Examples 2c) and 22 c) in rats (n=3), the release of histamine was determined at different points in time. For this, blood was taken from the carotid artery before and 10, 30 and 60 minutes after contrast agent administration, and the histamine contained in the plasma was determined by means of an ELISA system. The histamine values measured can be seen in Table 2. The histamine blank values in the conscious rats were in the normal range known from the literature.

[4] = tested on: mice; assay: Acute toxicity after single intravenous administration in mice (exploratory); assay type: in vivo; details: injection rate 2 ml/min, observation period 7 days
Method: After intravenous administration of the substances of Examples 2c), 21 c) and 22 c) in mice (n=3; injection rate: 2 ml/min), the acute systemic tolerability (LD50) was determined in an exploratory manner. In each case, a number of doses were investigated using an observation period of 7 days. The average acute toxicities to be expected were 2.5 mmol of Gd/kg of body weight for the substance from Example 2c) and >10.0 mmol of Gd/kg of body weight for the substances from Examples 21c) and 22 c).

[5] = tested on: popliteal lymph nodes; assay: MRT demonstration of lymph nodes after intravenous administration in rats; assay type: in vivo; details: i.v., 50 μmol of Gd/kg, 1.5 T, early points in time (up to 60 min p.i.)
Source text: The figures show exemplary MR shots of popliteal lymph nodes at different points in time after intravenous administration of 50 μmol of Gd/kg of body weight of the substance from Example 2c) in FIG. 1, of the substance from Example 21 c) in FIG. 2, and of the substance from Example 22 c) in FIG. 3 in rats.

[6] = Excretion after intravenous administration in rats (ICP-AES); assay type: in vivo; details: i.v., 50 μmol of total gadolinium/kg; for Gd content, rest of body: 14 days after administration; for Gd content, faeces / Gd content, urine: up to 14 days after administration
Method: After intravenous administration of 50 μmol of total gadolinium/kg of body weight of substances from Examples 2c), 21 c) and 22 c) in rats (n=3), the metal content was determined fractionally up to 14 days after administration by means of atomic emission spectrometry (ICP-AES) in the excretion medium urine and faeces, and in the body (rest of body) (Table 3).

[7] = in vivo; cited from earlier work
[8] = plasma (bovine), Gd concentration 0.271-1.086 mmol/l
[9] = water, Gd concentration 0.000-0.009 mmol/l
[10] = water, Gd concentration 0.020-1.099 mmol/l

| Substance | Vc [2] | Vd ss [2] | α-t½ [2] | β-t½ [2] | Histamine, baseline [3] | Histamine, 10 min p.i. [3] | Histamine, 30 min p.i. [3] | Histamine, 60 min p.i. [3] | signal in the functional lymph node tissue (T1-weighted MR shots) [5] | Gd content, rest of body [6] | Gd content, faeces [6] | Gd content, urine [6] | other results |
| --- | --- | --- | --- | --- | --- | --- | --- | --- | --- | --- | --- | --- | --- |
| 1,4,7-Tris(carboxylatomethyl)-10-[(3-aza-4-oxo-5-methyl-5-yl)-acid N-(1H,1H,2H,2H,4H,4H,-3,6,9,12-tetraoxaperfluorohexadecyl)-N-(2-methoxyethyl)amide]-1,4,7,10-tetraazacyclododecane, Gd complex [Example 2c] | 0.05 ± 0.00 L/kg | 0.08 ± 0.01 L/kg | 18.7 ± 2.0 min | 72 ± 12 min | 3 ± 2 ng/mL | 4 ± 4 ng/mL | 5 ± 3 ng/mL | 3 ± 2 ng/mL | strong signal increase | 0.2 ± 0.3 % dose | 92.9 ± 1.5 % dose | 0.8 ± 0.2 % dose | critical micelle formation concentration (CMC) ([1]; from the R1 relaxivities in water at high and low concentrations): 0.02 mmol of Gd/I; protein bond (relaxivity in plasma greater than in water) ([1]; plasma (bovine) versus water): indicates a protein bond; Relaxivity R1 [1, 8]: 26.0 ± 0.5 L/mmol/s; Relaxivity R2 [1, 8]: 35.1 ± 0.3 L/mmol/s; Relaxivity R1 [1, 9]: 5.3 ± 0.4 L/mmol/s; Relaxivity R2 [1, 9]: 5.3 ± 1.2 L/mmol/s; Relaxivity R1 [1, 10]: 17.8 ± 0.1 L/mmol/s; Relaxivity R2 [1, 10]: 16.3 ± 0.2 L/mmol/s; acute systemic tolerability (LD50) [4]: 2.5 mmol of Gd/kg of body weight |
| 1,4,7-Tris(carboxylatomethyl)-10-{(3-aza-4-oxo-5-methyl-5-yl)-acid-N-(1H,1H,2H,2H,4H,4H,-3,6,9,12-tetraoxaperfluorohexadecyl)-N-[2-(2-methoxyethoxy)ethyl]amide}-1,4,7,10-tetraazacyclododecane, Gd complex [Example 21c] | 0.04 ± 0.00 L/kg | 0.05 ± 0.00 L/kg | 28.4 ± 1.5 min | 78 ± 12 min |  |  |  |  | strong signal increase | 0.0 ± 0.0 % dose | 84.9 ± 0.7 % dose | 3.8 ± 0.1 % dose |  |
| Mn-TPPS |  |  |  |  |  |  |  |  |  |  |  |  | LD50 [7]: 0.5 mmol/kg; dose at which an action commences [7]: 0.2 mmol/kg |
| 1,4,7-Tris(carboxylatomethyl)-10-[(3-aza-4-oxo-5-methyl-5-yl)acid N-(1H,1H,2H,2H,4H,4H,-3,6,9,12-tetraoxaperfluorohexadecyl)-N-{2-[2-(2-methoxyethoxy)ethoxy]-ethyl}amide]1,4,7,10-tetraazacyclododecane, Gd complex [Example 22c] | 0.04 ± 0.00 L/kg | 0.06 ± 0.00 L/kg | 23.6 ± 0.6 min | 108 ± 18 min | 3 ± 1 ng/mL | 7 ± 3 ng/mL | 4 ± 1 ng/mL | 4 ± 1 ng/mL | strong signal increase | 0.0 ± 0.0 % dose | 83.4 ± 2.6 % dose | 1.8 ± 0.1 % dose |  |
